Calls of active or inactive are those of the source. The calls are words filed in the database; no cut-off is given here.
Columns and labels:
[1] = test system: HT-29; test: Growth inhibition of human HT-29 cells after 48 hrs by MTT assay; format: functional; details: HT-29, 48 h
[2] = test system: MDA-MB-231; test: Growth inhibition of human MDA-MB-231 cells after 48 hrs by MTT assay; format: functional; details: MDA-MB-231, 48 h
[3] = test system: A549; test: Growth inhibition of human A549 cells after 48 hrs by MTT assay; format: functional; details: A549, 48 h
[4] = test system: A549; test: Cytotoxicity against human A549 cells after 48 hrs by MTT assay; format: functional; details: A549, 48 h
[5] = test system: HT-29; test: Cytotoxicity against human HT-29 cells after 48 hrs by MTT assay; format: functional; details: HT-29, 48 h, read-out: LC50 (the source's name)
[6] = test system: A549; test: Induction of apoptosis in human A549 cells at 50 uM after 48 hrs by propidium iodide staining; format: functional, cell-based
[7] = test system: A549; test: Cell cycle arrest in human A549 cells assessed as decrease in accumulation at G2/M phase at […] after 48 hrs by flow cytometry; format: functional, cell-based
[8] = test system: A549; test: Cell cycle arrest in human A549 cells assessed as increase in accumulation at G1 phase at […] after 48 hrs by flow cytometry; format: functional, cell-based
[9] = test system: A549; test: Induction of DNA cleavage in human A549 cells assessed as CHK2 Ser19 phosphorylation at 50 uM after 24 hrs by Western blot; format: functional, cell-based
[10] = test system: A549; test: Induction of apoptosis in human A549 cells assessed as AKT signaling pathway activation at 50 uM after 24 hrs by Western blot; format: functional, cell-based
[11] = test system: A549; test: Induction of DNA cleavage in human A549 cells assessed as p53 Ser15 phosphorylation at 50 uM after 24 hrs by Western blot; format: functional, cell-based
[12] = test system: A549; test: Induction of apoptosis in human A549 cells assessed as p38 activation at 50 uM after 24 hrs by Western blot; format: functional, cell-based
[13] = test system: A549; test: Induction of DNA cleavage in human A549 cells assessed as H2AX phosphorylation at 50 uM after 24 hrs by Western blot; format: functional, cell-based
[14] = test system: A549; test: Induction of apoptosis in human A549 cells assessed as JNK activation at 50 uM after 24 hrs by Western blot; format: functional, cell-based
[15] = test system: A549; test: Cell cycle arrest in human A549 cells assessed as decrease in accumulation at G1 phase at […] after 48 hrs by flow cytometry; format: functional, cell-based
[16] = test system: MDA-MB-231; test: Cytotoxicity against human MDA-MB-231 cells after 48 hrs by MTT assay; format: functional; details: MDA-MB-231, 48 h, read-out: LC50 (the source's name)

## COc1c(C)c(OC)c(OC)c2c1C=C1CN(C)CC(=O)N1[C@H]2CN1Cc2ccccc2C1=O
[1]
  GI50: 3.67 µM
[2]
  GI50: 11.9 µM

## COc1c(C)c(OC)c(OC)c2c1C[C@H]1CNCC(=O)N1[C@H]2COCc1ccccc1 (relative stereo)
[3]
  GI50: 13.4 µM
  TGI: > 23.4 µM
[4]
  LC50: > 23.4 µM

## COc1c(C)c(OC)c(OC)c2c1C[C@H]1CN(C)CC(=O)N1[C@H]2COCc1ccccc1 (relative stereo)
[3]
  GI50: 12.7 µM
  TGI: > 22.7 µM
[4]
  LC50: > 22.7 µM

## COc1c(C)c(OC)c(OC)c2c1C[C@@H]1CN(C(=O)OC(C)C)CC(=O)N1[C@H]2COCc1ccccc1 (relative stereo)
[3]
  GI50: 8.19 µM
  TGI: 16.8 µM
[1]
  GI50: 10.5 µM

## COc1c(C)c(OC)c(OC)c2c1C[C@H]1CN(C(=O)OC(C)C)CC(=O)N1[C@H]2COCc1ccccc1 (relative stereo)
[3]
  GI50: 0.449 µM
  TGI: 1.89 µM
[1]
  GI50: 0.195 µM
  TGI: 0.273 µM
[2]
  GI50: 1.09 µM
[5]
  CC50: 0.527 µM

## COc1c(C)c(OC)c(OC)c2c1C[C@H]1CN(C(=O)OC(C)C)CC(=O)N1[C@H]2COC(=O)/C=C/c1ccccc1 (relative stereo)
[6]
  Activity: Active
[7]
  Activity: Active
[8]
  Activity: Active
[9]
  Activity: inactive
[3]
  GI50: 9.05 µM
[1]
  GI50: 9.23 µM
[10]
  Activity: inactive
[11]
  Activity: inactive
[12]
  Activity: inactive
[13]
  Activity: inactive
[14]
  Activity: inactive

## COc1c(C)c(OC)c(OC)c2c1C[C@H]1[C@@H](O)N(C(=O)OC(C)C)CC(=O)N1[C@H]2COCc1ccccc1 (relative stereo)
[15]
  Activity: Active
[6]
  Activity: Active
[7]
  Activity: Active
[9]
  Activity: inactive
[3]
  GI50: 5.68 µM
  TGI: 11.7 µM
[1]
  GI50: 8.32 µM
  TGI: 9.84 µM
[10]
  Activity: inactive
[11]
  Activity: inactive
[2]
  GI50: 9.27 µM
  TGI: 15.3 µM
[12]
  Activity: inactive
[13]
  Activity: inactive
[4]
  LC50: 17.4 µM
[14]
  Activity: inactive

## COc1c(C)c(OC)c(OC)c2c1C[C@H]1[C@H](C#N)N3C([C@@H]4O[C@H]5c6ccccc6[C@H](C#N)N5C[C@H]3c3c(OC)c(OC)c(C)c(OC)c34)[C@@H]2N1C (relative stereo)
[16]
  CC50: 12.8 µM
[9]
  Activity: inactive
[3]
  GI50: 11.4 µM
  TGI: 12 µM
[1]
  GI50: 7.35 µM
  TGI: 8.22 µM
[10]
  Activity: inactive
[11]
  Activity: inactive
[2]
  GI50: 11.4 µM
  TGI: 12 µM
[12]
  Activity: inactive
[13]
  Activity: inactive
[5]
  CC50: 10.2 µM
[4]
  LC50: 12.7 µM
[14]
  Activity: inactive

## COc1c(C)c(OC)c2c(c1OC)[C@@H]1CN3C(=O)c4ccccc4[C@@H]3O[C@H]2C2=CN(C(=O)OC(C)C)CC(=O)N21 (relative stereo)
[3]
  GI50: 2.91 µM
[1]
  GI50: 10.4 µM

## COc1c(C)c(OC)c(OC)c2c1C[C@H]1[C@@H](O)N(C(=O)OC(C)(C)C)CC(=O)N1[C@H]2COCc1ccccc1 (relative stereo)
[16]
  CC50: > 18.4 µM
[3]
  GI50: 4.79 µM
  TGI: 17.5 µM
[1]
  GI50: 14.4 µM
  TGI: > 18.4 µM
[2]
  GI50: 12 µM
  TGI: > 18.4 µM
[5]
  CC50: > 18.4 µM
[4]
  LC50: > 18.4 µM

## COc1cc2c(cc1O)CCN[C@]21CS[C@@H]2c3c(OC(C)=O)c(C)c4c(c3[C@H](COC1=O)N1[C@@H]2[C@H]2c3c(cc(C)c(OC)c3O)C[C@@H]([C@@H]1O)N2C)OCO4 [TRABECTEDIN]
[3]
  GI50: 0.125 µM
  TGI: 0.131 µM
[1]
  GI50: 0.0517 µM
  TGI: 0.063 µM
[2]
  GI50: 0.0551 µM
  TGI: 0.0578 µM
